{
  "source": "patent US10555930B2",
  "about": "“Complex of a glucopyranosyl derivative and preparation method and use thereof” (SUNSHINE LAKE PHARMA CO., LTD., priority 2015, dated 2020)",
  "assay": "Measurement of stability (high-temperature, high-humidity and photostability tests; HPLC impurity content)",
  "format": "physicochemical",
  "conditions": "for total impurity / purity: 210 nm",
  "method": "An appropriate amount of the Complex (IA) sample (prepared from example 2) was weighed and tiled on a clean culture dish at a thickness of ≤5 mm, and analyzed under the following conditions:\nThe test sample was placed under a high temperature condition (60±2° C.) for 10 d, the relative indexes were measured at the fifth and tenth days. […] If no significant change, the test at 40° C. was not necessary.\nThe test sample was placed under a 25° C. and RH 90%±5% condition for 10 d, and the sample were measured at the fifth and tenth days. Test items should include a moisture-absorption weight gain. If weighting percentage of moisture absorption was more than 5%, the test should be carried out under a 25° C. and RH 75%±5% condition using the same method; If weighting percentage of moisture absorption was less than 5%, and other inspection items met the requirements, the test was not necessary. The constant humidity condition can be realized by adopting constant temperature humidity chamber or placing a saturated saline solution under a closed container. […]\nThe test sample was placed in light box or other suitable light vessel under a 4500 Lx±500 Lx of illuminance condition for 10 d, and the sample were measured at the fifth and tenth days.\nThe impurity content of the sample was calculated by the normalization method of peak area using an HPLC chromatographic instrument under the above condition, the analytic conditions were shown below:\nThe detection was performed on Agilent 1200DAD high pressure liquid chromatography spectrometer (Zorbax Eclipse Plus C18 150×4.6 mm chromatographic column).\nThe test condition of HPLC: the run time was 30 minutes (min); the column temperature was 35° C.; the detection was carried out at the wavelength of 210 nm and 225 nm;\nMobile phase: phase C: acetonitrile phase D: ultrapure water flow rate: 1.0 mL/min.\nGradient elution, the ratio of mobile phase was shown as table B.",
  "key": {"[1]": {"conditions": "high humidity (25° C., RH 90%±5%), 5 d, HPLC"}, "[2]": {"conditions": "high humidity (25° C., RH 90%±5%), 10 d, HPLC"}, "[3]": {"conditions": "high-temperature (60±2° C.), 5 d, HPLC"}, "[4]": {"conditions": "high-temperature (60±2° C.), 10 d, HPLC"}, "[5]": {"conditions": "illumination (4500 Lx±500 Lx), 5 d, HPLC"}, "[6]": {"conditions": "illumination (4500 Lx±500 Lx), 10 d, HPLC"}},
  "data": [
    {"smiles": "CCOc1ccc(Cc2cc([C@]34OC[C@]([C@@H](C)O)(O3)[C@@H](O)[C@H](O)[C@H]4O)ccc2Cl)cc1", "note": "[compound (I-n) amorphism, (1R,2S,3S,4R,5S)-5-(4-chloro-3-(4-ethoxybenzyl)phenyl)-1-((1R)-1-hydroxyethyl)-6,8-dioxabicyclo[3.2.1]octane-2,3,4-triol]", "values": [
      {"measurement": "total impurity", "setting": "0 d, HPLC peak area normalization", "value": 0.25, "unit": "%"},
      {"measurement": "purity", "setting": "0 d, HPLC", "value": 99.75, "unit": "%"},
      {"measurement": "appearance", "setting": "high humidity (25° C., RH 90%±5%), 5 d", "value": "white bulk"},
      {"measurement": "purity", "setting": "[1]", "value": 99.70, "unit": "%"},
      {"measurement": "total impurity", "setting": "[1]", "value": 0.30, "unit": "%"},
      {"measurement": "appearance", "setting": "high humidity (25° C., RH 90%±5%), 10 d", "value": "white bulk"},
      {"measurement": "purity", "setting": "[2]", "value": 99.78, "unit": "%"},
      {"measurement": "total impurity", "setting": "[2]", "value": 0.22, "unit": "%"},
      {"measurement": "purity", "setting": "[3]", "value": 95.03, "unit": "%"},
      {"measurement": "total impurity", "setting": "[3]", "value": 4.97, "unit": "%"},
      {"measurement": "purity", "setting": "[4]", "value": 92.16, "unit": "%"},
      {"measurement": "total impurity", "setting": "[4]", "value": 7.84, "unit": "%"},
      {"measurement": "stability (summary in words)", "setting": "high-temperature, high humidity or illumination for 10 d, listed as compound (I-n) in amorphism form", "value": "poor stability"},
      {"measurement": "purity", "setting": "[5]", "value": 99.69, "unit": "%"},
      {"measurement": "total impurity", "setting": "[5]", "value": 0.31, "unit": "%"},
      {"measurement": "purity", "setting": "[6]", "value": 99.72, "unit": "%"},
      {"measurement": "total impurity", "setting": "[6]", "value": 0.28, "unit": "%"}
    ]}
  ]
}
